This is an account of results in US20240285670A1, “THERAPEUTIC TREATMENT OF TUMORS BY BLOCKING THE HEME SYNTHESIS-EXPORT AXIS” (Università degli Studi di Torino, priority 2021, published 2024).

Data set [1] relates to SH-SY5Y cells. In words: TCA cycle flux in SHSY-5Y cells. In kind it is cell-based, human. Particulars: FLVCR1a-silenced vs scramble shRNA SH-SY5Y cells. The text has this:
Results were expressed as nmol NAD*/min/mg mitochondrial protein for complex I, nmol reduced cytochrome c/min/mg mitochondrial protein for complexes II-III, nmol oxidized cytochrome c/min/mg mitochondrial protein for complex IV. Data represent mean±SEM, n=3. For statistical analyses, an unpaired Student's t-test was used; *=p<0.05, **=p<0.01, *=p<0.001. […] Results are expressed as nmol/mg mitochondrial proteins. Data represent mean±SEM, n=3. For statistical analyses, an unpaired Student's t-test was used; *=p<0.05. […] Results are expressed as pmol CO2/h/mg protein. Data represent mean±SEM, n=3. For statistical analyses, an unpaired Student's t-test was used; **=p<0.01. […] Results were expressed as nmol NAD*/min/mg mitochondrial protein for complex I, nmol reduced cytochrome c/min/mg mitochondrial protein for complexes II-III, nmol oxidized cytochrome c/min/mg mitochondrial protein for complex IV. […] Results are expressed as nmol/mg mitochondrial proteins. […] Results are expressed as pmol CO2/h/mg protein. […] (H) TCA cycle enzymes activities are reported in boxes and expressed as mU/mg mitochondrial proteins. […] Results were expressed as nmol NAD^+/min/mg mitochondrial protein for complex I, nmol reduced cytochrome c/min/mg mitochondrial protein for complexes II-III, nmol oxidized cytochrome c/min/mg mitochondrial protein for complex IV. […] Results are expressed as nmol/mg mitochondrial proteins. […]

The subject of data set [2] is BTECs. As to the kind of experiment: In vitro tubulogenesis assay on matrigel. The class given is cell-based, human. Particulars: FLVCR1a-silenced vs scramble shRNA BTECs, 18 hours. The text has this: (A) BTECs counting, as a readout of cell proliferation, at the indicated time points. […] Data represent mean±SEM, n=4. For statistical analyses, a two-way analysis of variance was used, followed by the Bonferroni correction for multiple group comparisons; ***p<0.001. (B) Quantification of BTECs migration rate in wound-healing assay. […] Data represent mean±SEM, n=32. For statistical analyses, a nonparametric unpaired Mann-Whitney test was used; ***p<0.001. (C) In vitro tubulogenesis assay on matrigel. […] The number of nodes counted within the neo-formed vascular networks is shown. Data represent mean±SEM; n=10. For statistical analyses, a nonparametric unpaired Mann-Whitney test was used; **p<0.01.
To assess in vitro formation of capillary-like structures, 3.5*10^4 BTECs were seeded in 24-well plates coated with BD Matrigel Matrix Growth Factor Reduced (BD Biosciences, Franklin Lakes, NJ USA, catalog n°356230). Cell organization on Matrigel was monitored using a Nikon Eclipse T-E microscope with a Nikon Plan 10×/0.10 NA objective. […] Images obtained 18 hours after the start of the experiment were analysed using Fiji open source software (Schindelin et al., 2012) (http://fiji.sc/ RRID:SCR_002285) in order to assess the number of nodes (intersections formed by at least three detectable cells) for each field. […]

In the case of “FLVCR1a shRNA: shRNA specifically down-regulating FLVCR1a without targeting FLVCR1b; pLKO.1 lentiviral clone TRCN0000059599, antisense SEQ ID No.: 2 (antisense TTGCTAATGATGCTGTACTGG; sense CCAGTACAGCATCATTAGCAA)”, the TCA cycle flux result in data set [1] was “increased TCA cycle flux”. Moreover, the “formation of microvascular network on matrigel (number of nodes)” value in data set [2] was “impaired ability to form a complex microvascular network on matrigel”.
